{"source": "patent US20240238247A1", "about": "“METHOD OF TREATING EXPRESSIVE LANGUAGE DEFICIT IN AUTISTIC HUMANS” (AMS Therapeutics, priority 2022, published 2024)", "format_in_all_cases": "in vivo", "key": {"autistic human patients [1]": {"system": "autistic human patients", "assay": "Social behavior graded on 7-point scale (-3 to +3 vs baseline), based on Aberrant Behavior Checklist, in autistic patients treated with ETS", "conditions": "for Improvement Over Baseline, Social behavior: after six months of ETS therapy", "description": "(§1) To assess the effectiveness of ethosuximide as a pharmacological treatment for expressive language deficit, 24 human patients were treated with ethosuximide (ETS) for at least one month, more preferably six months or longer, and their language, social, and behavioral skills were monitored throughout the course of treatment, typically every 1-3 months. Study participants (subjects) were divided into four treatment groups based on neurodevelopmental level (mental status): normal IQ (NIQ), borderline IQ (BIQ), mild mental retardation (mMR), and moderate mental retardation (moMR). Language skills (expressiveness, receptivity), social behavior (social interaction, eye contact, participation), and mood (affect, irritability, agitation) were evaluated at various points in time. Verbal output was graded using a 7-point scale (0-6), where 0=nonverbal, 1=echolalic (the patient can respond by echoing the speaker), 2=single words (the patient can respond in single words), 3=phrases (the patient can respond in a simple phrase), 4=sentences (the patient can respond in a full sentence), 5=spontaneous speech (the patient can speak spontaneously), and 6=mutual speech (the patient can have a true conversation with another person). Social behavior and mood symptoms, based on those described in the Aberrant Behavior Checklist, an established behavioral rating system used in evaluating patients with intellectual disabilities (see Aman, M. G., et al., “The Aberrant Behavior Checklist: A behavior rating scale for the assessment of treatment effects,” American Journal of Mental Deficiency, 89(5):485-491 (1985), incorporated by reference herein), were also graded on a 7-point scale (0±3). […] Social behavior and mood data are presented below in Table 8. To evaluate drug efficacy and onset of action, each patient was monitored for changes in language, social behavior, and mood at various times after commencement of ETS therapy. Performance characteristics observed for each function (expressive language, mood, behavior) are summarized in Table 6, at t=1 month after commencement of treatment and t=3 months after commencement of treatment."}, "[2]": {"system": "autistic human patients with expressive language deficit", "assay": "Expressive language (verbal output) graded on 7-point scale (0-6) in autistic patients treated with ethosuximide (ETS)", "conditions": "for mean expressive language score after six months (Rx): FIG. 1; for Improvement Over Baseline, Expressive language: after six months of ETS therapy; for mean improvement in expressive language score: normal IQ patients (N=8) treated more than one month, 7-point scale of Table 1", "description": "To assess the effectiveness of ethosuximide as a pharmacological treatment for expressive language deficit, 24 human patients were treated with ethosuximide (ETS) for at least one month, more preferably six months or longer, and their language, social, and behavioral skills were monitored throughout the course of treatment, typically every 1-3 months. Study participants (subjects) were divided into four treatment groups based on neurodevelopmental level (mental status): normal IQ (NIQ), borderline IQ (BIQ), mild mental retardation (mMR), and moderate mental retardation (moMR). Language skills (expressiveness, receptivity), social behavior (social interaction, eye contact, participation), and mood (affect, irritability, agitation) were evaluated at various points in time. Verbal output was graded using a 7-point scale (0-6), where 0=nonverbal, 1=echolalic (the patient can respond by echoing the speaker), 2=single words (the patient can respond in single words), 3=phrases (the patient can respond in a simple phrase), 4=sentences (the patient can respond in a full sentence), 5=spontaneous speech (the patient can speak spontaneously), and 6=mutual speech (the patient can have a true conversation with another person). [table] To evaluate drug efficacy and onset of action, each patient was monitored for changes in language, social behavior, and mood at various times after commencement of ETS therapy. Performance characteristics observed for each function (expressive language, mood, behavior) are summarized in Table 6, at t=1 month after commencement of treatment and t=3 months after commencement of treatment."}, "autistic human patients [3]": {"system": "autistic human patients", "assay": "Mood graded on 7-point scale (-3 to +3 vs baseline), based on Aberrant Behavior Checklist, in autistic patients treated with ETS", "conditions": "for Improvement Over Baseline, Mood: after six months of ETS therapy", "description": "as §1"}, "autistic human patients [4]": {"system": "autistic human patients", "assay": "Tolerability / side effects of ETS treatment in the study patients", "text": "Common side effects reported in the literature for patients receiving ethosuximide treatment for childhood absence epilepsy include abdominal distress, diarrhea, weight loss, hyperactivity, lethargy, leukopenia, and depression. Very few of these symptoms were reported or observed in the patients participating in the study herein described. Eleven patients stopped ETS treatment after 6 months or less. Five of these patients dropped out for non-medical reasons."}, "[5]": {"conditions": "normal IQ patients, Aberrant Behavior Checklist methodology"}}, "note": "Entries after “also recorded” stand apart in the source; their conditions may differ.", "data": [{"smiles": "CCC1(C)CC(=O)NC1=O", "note": "(centres unmarked) [ETS, 2-ethyl-2-methylsuccinimide]", "values": [{"measurement": "Improvement Over Baseline, Social behavior", "setting": "autistic human patients [1]; BIQ", "value": "+1.5"}, {"measurement": "Improvement Over Baseline, Social behavior", "setting": "autistic human patients [1]; NIQ", "value": "+2.0"}, {"measurement": "Social behavior, observed performance", "setting": "autistic human patients [1]; after 1 month of treatment", "value": "More engaged"}, {"measurement": "Social behavior: increased eye contact, score change", "setting": "autistic human patients [1]; after 1 month of treatment", "value": "contact (+1)"}, {"measurement": "Social behavior, observed performance", "setting": "autistic human patients [1]; after 3 months of treatment", "value": "Sits in groups"}, {"measurement": "Improvement Over Baseline, Social behavior", "setting": "autistic human patients [1]; mMR", "value": "+1.0"}, {"measurement": "Improvement Over Baseline, Social behavior", "setting": "autistic human patients [1]; moMR", "value": "+1.0"}, {"measurement": "gain in social behavior", "setting": "autistic human patients [1]; [5]", "value": "+2 points"}, {"measurement": "mean expressive language score after six months (Rx)", "setting": "[2]; BIQ group, N=4, baseline 1.7, 0-6 scale", "value": 2.75}, {"measurement": "Improvement Over Baseline, Expressive language", "setting": "[2]; BIQ", "value": "+1.0"}, {"measurement": "mean expressive language score after six months (Rx)", "setting": "[2]; NIQ group, N=8, baseline 2.5, 0-6 scale", "value": 4.4}, {"measurement": "Improvement Over Baseline, Expressive language", "setting": "[2]; NIQ", "value": "+2.0"}, {"measurement": "expressive language score", "setting": "[2]; Patient A, after 3 months, baseline score 2 (single words)", "value": 3}, {"measurement": "expressive language, observation", "setting": "[2]; Patient A, at 6-9 months", "value": "responding in full sentences"}, {"measurement": "expressive language, observation", "setting": "[2]; Patient A, at 9-12 months", "value": "speak spontaneously and even ask questions"}, {"measurement": "Language development", "setting": "[2]; Patient A, baseline SW, 1 mo.", "value": "Increased"}, {"measurement": "Language development (expressive language class)", "setting": "[2]; Patient A, baseline SW, 3 mo.", "value": "PH (Phrases)"}, {"measurement": "Language development (expressive language class)", "setting": "[2]; Patient A, baseline SW, 6 mo.", "value": "SN/SP"}, {"measurement": "Language development (expressive language class)", "setting": "[2]; Patient A, baseline SW, 9 mo.", "value": "SN/SP"}, {"measurement": "Language development (expressive language class)", "setting": "[2]; Patient A, baseline SW, 12 mo.", "value": "SN/SP/MU"}, {"measurement": "expressive language, observation", "setting": "[2]; Patient A, one month after onset of ETS treatment, baseline score 2", "value": "saying more words"}, {"measurement": "Language development (4-word PH)", "setting": "[2]; Patient B, baseline EC/2-word PH, 3 mo.", "value": "4-word"}, {"measurement": "Language development (expressive language class)", "setting": "[2]; Patient B, baseline EC/2-word PH, 6 mo.", "value": "SN (Sentences)"}, {"measurement": "Language development (expressive language class)", "setting": "[2]; Patient B, baseline EC/2-word PH, 9 mo.", "value": "SN/SP"}, {"measurement": "expressive language, observation", "setting": "[2]; Patient B, by month 6", "value": "speak in sentences"}, {"measurement": "expressive language, observation", "setting": "[2]; Patient B, by month 9", "value": "converse spontaneously at times"}, {"measurement": "expressive language, observation", "setting": "[2]; Patient B, three months after onset of treatment, echolalic, some two-word phrases before", "value": "3 and 4-word phrases"}, {"measurement": "expressive language skills during treatment", "setting": "[2]; Patient C, autistic child, 6 months of ETS, FIG. 3", "value": "steadily improved"}, {"measurement": "expressive language, observation", "setting": "[2]; Patients A and B (normal IQ), by 9 months from commencement of treatment, FIG. 2", "value": "some spontaneous speech"}, {"measurement": "language skills after ETS treatment was stopped", "setting": "[2]; Patients C (stopped at 6 months) and D (stopped at 9 months), evaluated several months later, FIG. 3", "value": "continued to improve"}, {"measurement": "Expressive language: increased word count (talking more), score change", "setting": "[2]; after 1 month of treatment", "value": "count (+1)"}, {"measurement": "Expressive language, observed performance", "setting": "[2]; after 3 months of treatment", "value": "2-word phrases and Listening better and makes wants clearer"}, {"measurement": "effect on expressive language skills", "setting": "[2]; both epileptic (7 of 24) and non-epileptic patients", "value": "improved"}, {"measurement": "mean expressive language score after six months (Rx)", "setting": "[2]; mMR group, N=6, baseline 1.3, 0-6 scale", "value": 2.5}, {"measurement": "Improvement Over Baseline, Expressive language", "setting": "[2]; mMR", "value": "+1.2"}, {"measurement": "mean expressive language score after six months (Rx)", "setting": "[2]; moMR group, N=2, baseline 0.5, 0-6 scale", "value": 1.0}, {"measurement": "Improvement Over Baseline, Expressive language", "setting": "[2]; moMR", "value": "+0.5"}, {"measurement": "mean improvement in expressive language score", "setting": "[2]", "value": 1.9, "unit": "points"}, {"measurement": "mean improvement in expressive language score", "setting": "[2]; listed as ethosuximide", "value": "about 2 points"}, {"measurement": "improvements in expressive language and social skills", "setting": "[2]; one month after commencing daily treatment", "value": "evident"}, {"measurement": "retention of language gains after discontinuation", "setting": "[2]; patients who discontinued treatment (after six months)", "value": "did not lose their language gains"}, {"measurement": "Improvement Over Baseline, Mood", "setting": "autistic human patients [3]; BIQ", "value": "+1.4"}, {"measurement": "Improvement Over Baseline, Mood", "setting": "autistic human patients [3]; NIQ", "value": "+1.2"}, {"measurement": "Mood / focus observation", "setting": "autistic human patients [3]; Patient B, 3 months after onset of treatment", "value": "more focused and calmer; also recorded: focused; also recorded: calmer"}, {"measurement": "Mood: calmer, score change", "setting": "autistic human patients [3]; after 1 month of treatment", "value": "Calmer (+1)"}, {"measurement": "Mood: more focused, score change", "setting": "autistic human patients [3]; after 1 month of treatment", "value": "More focused (+1)"}, {"measurement": "Mood, observed performance", "setting": "autistic human patients [3]; after 3 months of treatment", "value": "Fewer tantrums"}, {"measurement": "Improvement Over Baseline, Mood", "setting": "autistic human patients [3]; mMR", "value": "+1.0"}, {"measurement": "Improvement Over Baseline, Mood", "setting": "autistic human patients [3]; moMR", "value": 0.0}, {"measurement": "Improvement Over Baseline, Mood", "setting": "autistic human patients [3]; moMR, listed as ethosuximide", "value": "no change"}, {"measurement": "gain in mood", "setting": "autistic human patients [3]; [5]", "value": "+1.2 points"}, {"measurement": "tolerability", "setting": "autistic human patients [4]; all ages evaluated (3-24 years), 150-1000 mg b.i.d.", "value": "well tolerated"}, {"measurement": "literature side effects (abdominal distress, diarrhea, weight loss, hyperactivity, lethargy, leukopenia, depression) reported or observed", "setting": "autistic human patients [4]; patients participating in the study", "value": "Very few"}]}]}
